As usually defined, the EC50 is the concentration at which the effect is half-maximal.

Where two headings read alike, the source gives them in different places.

Assay [1] has as its target T1, CFTR (Homo sapiens, UniProt P13569). The assay is described as follows: Membrane Potential Dye, Enteroid Assay A. In kind it is cell-based. The following applies: for EC50: read-out: Ent. A EC50. On the procedure: Base medium (ADF+++) consisted of Advanced […], 2 mM Glutamax, 10 mM HEPES, 1 μg/mL penicillin/streptomycin.
Intestinal enteroid maintenance medium (IEMMN) consisted of ADF+++, 1× B27 supplement, 1× N2 supplement, 1.25 mM N-acetyl cysteine, 10 mM Nicotinamide, 50 ng/mL hEGF, 10 nM Gastrin, 1 μg/mL hR-spondin-1, 100 ng/mL hNoggin, TGF-b type 1 inhibitor A-83-01, 100 μg/mL Primocin, 10 μM P38 MAPK inhibitor SB202190.
Bath 1 Buffer consisted of 1 mM MgCl2, 160 mM NaCl, 4.5 mM KCl, 10 mM HEPES, 10 mM Glucose, 2 mM CaCl2).
Chloride Free Buffer consisted of 1 mM Magnesium Gluconate, 2 mM Calcium Gluconate, 4.5 mM Potassium Gluconate, 160 mM Sodium Gluconate, 10 mM HEPES, 10 mM Glucose.
Bath 1 Dye Solution consisted of Bath 1 Buffer, 0.04% Pluronic F127, 20 μM Methyl Oxonol, 30 μM CaCCinh-A01, 30 μM Chicago Sky Blue.
Chloride Free Dye Solution consisted of Chloride Free Buffer, 0.04% Pluronic F127, 20 μM Methyl Oxonol, 30 μM CaCCinh-A01, 30 μM Chicago Sky Blue.
Chloride Free Dye Stimulation Solution consisted of Chloride Free Dye Solution, 10 μM forskolin, 100 μM IBMX, and 300 nM Compound III.
Human intestinal epithelial enteroid cells were obtained from the Hubrecht Institute for Developmental Biology and Stem Cell Research, Utrecht, The Netherlands and expanded in T-Flasks as previously described (Dekkers J F, Wiegerinck C L, de Jonge H R, Bronsveld I, Janssens H M, de Winter-de Groot K M, Brandsma A M, de Jong N W M, Bijvelds M J C, Scholte B J, Nieuwenhuis E E S, van den Brink S, Clevers H, van der Ent C K, Middendorp S and M Beekman J M. A functional CFTR assay using primary cystic fibrosis intestinal organoids. Nat Med. 2013 July; 19(7):939-45.).
3. Enteroid Cell Harvesting and Seeding
Cells were recovered in cell recovery solution, collected by centrifugation at 650 rpm for 5 min at 4° C., resuspended in TrypLE and incubated for 5 min at 37° C. Cells were then collected by centrifugation at 650 rpm for 5 min at 4° C. and resuspended in IEMM containing 10 μM ROCK inhibitor (RI). The cell suspension was passed through a 40 μm cell strainer and resuspended at 1×10^6 cells/mL in IEMM containing 10 μM RI. Cells were seeded at 5000 cells/well into multi-well plates and incubated for overnight at 37° C., 95% humidity and 5% CO2 prior to assay.
4. Membrane Potential Dye, Enteroid Assay A
Enteroid cells were incubated with test compound in IEMM for 18-24 hours at 37° C., 95% humidity and 5% CO2. […] Briefly, cells were washed 5 times in Bath 1 Buffer. Bath 1 Dye Solution was added, and the cells were incubated for 25 min at room temperature. Following dye incubation, cells were washed 3 times in Chloride Free Dye Solution. Chloride transport was initiated by addition of Chloride Free Dye Stimulation Solution and the fluorescence signal was read for 15 min. […] Chloride transport was then expressed as a percentage of the chloride transport following treatment with 3 μM N-[(6-amino-2-pyridyl)sulfonyl]-6-(3-fluoro-5-isobutoxy-phenyl)-2-[(4S)-2,2,4-trimethylpyrrolidin-1-yl]pyridine-3-carboxamide, 3 μM (R)-1-(2,2-difluorobenzo[d][1,3]dioxol-5-yl)-N-(1-(2,3-dihydroxypropyl)-6-fluoro-2-(1-hydroxy-2-methylpropan-2-yl)-1H-indol-5-yl)cyclopropanecarboxamide and 300 nM acute N-[2,4-bis(1,1-dimethylethyl)-5-hydroxyphenyl]-1,4-dihydro-4-oxoquinoline-3-carboxamide triple combination control (% Activity).

Assay [2] has as its target T1, CFTR. The experiment in a line: Membrane Potential Dye, Enteroid Assay B. In kind it is cell-based. A digest of the protocol:
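Activity given as % of a triple-combination reference (1 μM and 3 μM correctors, 300 nM acute potentiator). Enteroids were preincubated 18-24 h with compound; chloride efflux then measured 15 min by methyl oxonol fluorescence after forskolin/IBMX/Compound III stimulation in chloride-free buffer containing CaCCinh-A01 and Chicago Sky Blue.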

Where [3] appears, read: Table 10, read-out: Ent. B EC50.

T1 sequence (P13569 with tags, fused parts or gaps DEL508-508): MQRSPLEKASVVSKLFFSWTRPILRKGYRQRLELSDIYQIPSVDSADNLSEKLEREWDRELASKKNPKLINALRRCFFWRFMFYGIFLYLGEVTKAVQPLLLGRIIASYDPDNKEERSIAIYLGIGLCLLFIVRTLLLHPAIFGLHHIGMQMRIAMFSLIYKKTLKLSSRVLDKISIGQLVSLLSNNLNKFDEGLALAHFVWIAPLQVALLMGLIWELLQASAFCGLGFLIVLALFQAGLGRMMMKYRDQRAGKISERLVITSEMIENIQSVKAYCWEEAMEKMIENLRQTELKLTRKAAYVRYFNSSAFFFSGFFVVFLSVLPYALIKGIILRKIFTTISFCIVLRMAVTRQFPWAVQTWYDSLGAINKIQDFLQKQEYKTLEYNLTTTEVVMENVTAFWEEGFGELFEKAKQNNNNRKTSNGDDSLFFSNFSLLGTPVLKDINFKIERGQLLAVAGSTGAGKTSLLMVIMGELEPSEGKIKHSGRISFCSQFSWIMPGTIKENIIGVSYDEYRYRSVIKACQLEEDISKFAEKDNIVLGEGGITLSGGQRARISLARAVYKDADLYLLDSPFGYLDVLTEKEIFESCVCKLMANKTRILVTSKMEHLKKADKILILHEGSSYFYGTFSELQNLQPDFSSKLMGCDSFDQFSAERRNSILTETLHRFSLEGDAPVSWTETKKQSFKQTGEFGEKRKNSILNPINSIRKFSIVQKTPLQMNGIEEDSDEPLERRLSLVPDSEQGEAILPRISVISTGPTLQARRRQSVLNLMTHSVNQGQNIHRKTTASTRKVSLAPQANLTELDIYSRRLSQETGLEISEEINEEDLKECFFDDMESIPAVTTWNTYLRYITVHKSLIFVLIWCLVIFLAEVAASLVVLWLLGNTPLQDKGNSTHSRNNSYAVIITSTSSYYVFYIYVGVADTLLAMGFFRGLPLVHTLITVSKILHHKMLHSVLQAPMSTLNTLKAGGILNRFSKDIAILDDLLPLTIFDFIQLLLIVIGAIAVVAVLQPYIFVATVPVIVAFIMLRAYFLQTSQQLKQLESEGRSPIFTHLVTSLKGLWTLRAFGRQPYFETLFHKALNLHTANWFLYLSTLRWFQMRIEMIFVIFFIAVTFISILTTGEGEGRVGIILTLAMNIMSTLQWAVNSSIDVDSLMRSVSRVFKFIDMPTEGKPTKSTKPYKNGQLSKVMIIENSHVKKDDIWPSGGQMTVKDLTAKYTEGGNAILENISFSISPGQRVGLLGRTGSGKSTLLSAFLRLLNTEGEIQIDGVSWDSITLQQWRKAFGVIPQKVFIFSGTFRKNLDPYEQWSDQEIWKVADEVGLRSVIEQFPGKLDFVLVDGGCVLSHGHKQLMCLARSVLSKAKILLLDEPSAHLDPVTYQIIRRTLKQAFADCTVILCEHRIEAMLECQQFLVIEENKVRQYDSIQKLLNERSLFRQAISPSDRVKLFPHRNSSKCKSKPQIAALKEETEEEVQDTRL

On to `Cc1cccc(C)c1-c1cc2nc(n1)NS(=O)(=O)c1cccc(c1)C(=O)N([C@H]1C[C@]3(CCCCN3C)C1)[C@H](CC(C)C)CO2` [Compound 331], for which, on CFTR [1], the “Ent. A Max Activity (%)” value is “+++ (+++ is >60%)” and the 50% effective concentration (EC50) is below 1000 nM.

In the case of `Cc1cccc(C)c1-c1cc2nc(n1)NS(=O)(=O)c1cccc(c1)C(=O)N([C@H]1C[C@@H](OCc3ccccc3)C1)[C@H](CC(C)C)CO2` (single isomer, unassigned) [Compound 42], at CFTR [1], the “Ent. A Max Activity (%)” value is given as “++ (++ is 30-60%)” and the half-maximal effective concentration (EC50) was below 1000 nM.

For the compound `Cc1cccc(C)c1-c1cc2nc(n1)NS(=O)(=O)c1cccc(c1)C(=O)N(C1CC3(CCN(C)CC3)C1)C(CC1(C(F)(F)F)CC1)CO2` (single isomer, unassigned) [Compound 137, 6-(2,6-dimethylphenyl)-12-(7-methyl-7-azaspiro[3.5]nonan-2-yl)-2,2-dioxo-11-[[1-(trifluoromethyl)cyclopropyl]methyl]-9-oxa-2λ^6-thia-3,5,12,19-tetrazatricyclo[12.3.1.14,8]nonadeca-1(18),4(19),5,7,14,16-hexaen-13-one], at CFTR [1], the “Ent. A Max Activity (%)” value was “+++ (+++ is >60%)” and the EC50 was in the range of 1000 to 3000 nM.

On to `Cc1cccc(C)c1-c1cc2nc(n1)NS(=O)(=O)c1cccc(c1)C(=O)N([C@H]1C[C@]3(CCN(C)C3)C1)[C@H](CC(C)C)CO2` [Compound 330], for which, on CFTR [1], the “Ent. A Max Activity (%)” value is “+++ (+++ is >60%)” and the EC50 was below 1000 nM.

Regarding `CC(=O)N1C[C@H]2C[C@H](N3C(=O)c4cccc(c4)S(=O)(=O)Nc4nc(cc(-c5c(C)cccc5C)n4)OC[C@H]3CC(C)C)C[C@H]2C1` [Compound 336], on CFTR [1], the “Ent. A Max Activity (%)” value is on record as “++ (++ is 30-60%)” and the EC50 was below 1000 nM.

Consider `Cc1cccc(C)c1-c1cc2nc(n1)NS(=O)(=O)c1cccc(c1)C(=O)N([C@H]1C[C@]3(CCCN(C)C3)C1)[C@H](CC(C)C)CO2` [Compound 332], for which, on CFTR [1], the “Ent. A Max Activity (%)” value is listed as “+++ (+++ is >60%)” and the 50% effective concentration (EC50) is below 1000 nM.

Regarding `Cc1cccc(C)c1-c1cc2nc(n1)NS(=O)(=O)c1cccc(c1)C(=O)N(C1CC3(CCN(C)CC3)C1)C(CC1(C(F)(F)F)CC1)CO2` (single isomer, unassigned) [Compound 136, 6-(2,6-Dimethylphenyl)-12-(7-methyl-7-azaspiro[3.5]nonan-2-yl)-2,2-dioxo-11-[[1-(trifluoromethyl)cyclopropyl]methyl]-9-oxa-2λ^6-thia-3,5,12,19-tetrazatricyclo[12.3.1.14,8]nonadeca-1(18),4(19),5,7,14,16-hexaen-13-one], at CFTR [1], the “Ent. A Max Activity (%)” value was “+++ (+++ is >60%)” and the concentration giving a half-maximal response (EC50) was below 1000 nM.

With `Cc1cccc(C)c1-c1cc2nc(n1)NS(=O)(=O)c1cccc(c1)C(=O)N([C@H]1C[C@]3(CCN(C)C3)C1)[C@H](CC(C)C)CO2` (stereo in doubt) [Compound 333], on CFTR [1], the “Ent. A Max Activity (%)” value is “+++ (+++ is >60%)” and the half-maximal effective concentration (EC50) is below 1000 nM.

With `CC(=O)N1CC2(CC(N3C(=O)c4cccc(c4)S(=O)(=O)Nc4nc(cc(-c5c(C)cccc5C)n4)OC[C@H]3CC(C)C)C2)C1` [Compound 335], at CFTR [1], the “Ent. A Max Activity (%)” value was “++ (++ is 30-60%)” and the EC50 was below 1000 nM.

On to `Cc1cccc(C)c1-c1cc2nc(n1)NS(=O)(=O)c1cccc(c1)C(=O)N(C1CC3(CCN(C[C@H](O)CO)CC3)C1)[C@H](CC(C)C)CO2` [Compound 341], for which, on CFTR [1], the “Ent. A Max Activity (%)” value is recorded as “+++ (+++ is >60%)” and the concentration giving a half-maximal response (EC50) was below 1000 nM.

For the compound `CNC(=O)[C@H]1CC2(C1)C[C@H](N1C(=O)c3cccc(c3)S(=O)(=O)Nc3nc(cc(-c4c(C)cccc4C)n3)OC[C@H]1CC(C)C)C2` (stereo in doubt) [Compound 347], on CFTR [1], the “Ent. A Max Activity (%)” value is given as “+++ (+++ is >60%)” and the EC50 is below 1000 nM.

Take `Cc1cccc(C)c1-c1cc2nc(n1)NS(=O)(=O)c1cccc(c1)C(=O)N([C@@H]1CC[C@@H]1C1CC1)[C@H](CC(C)(C)C)CO2` (single isomer, unassigned) [Compound 147]: the “Ent. B Max Activity (%)” value at CFTR [2] (Table 10) is reported as “++ (++ is 30-60%)”. Also, the EC50 at CFTR [2] (setting [3]) was below 1000 nM.

As to `[H][C@]1(N2C(=O)c3cccc(c3)S(=O)(=O)Nc3nc(cc(-c4c(C)cccc4C)n3)OC[C@H]2CC(C)C)C[C@@]2(C[C@H](NC(=O)OC(C)C)C2)C1` (single isomer, unassigned) [Compound 124], the “Ent. B Max Activity (%)” value at CFTR [2] (Table 10) was “+++ (+++ is >60%)”. Moreover, the half-maximal effective concentration (EC50) at CFTR [2] (setting [3]) is below 1000 nM.

`Cc1cccc(C)c1-c1cc2nc(n1)NS(=O)(=O)c1cccc(n1)C(=O)N(C1CC3(CC3)C1)[C@H](CC(C)C)CO2` [Compound 164, (11R)-6-(2,6-Dimethylphenyl)-11-isobutyl-2,2-dioxo-12-spiro[2.3]hexan-5-yl-9-oxa-2λ^6-thia-3,5,12,18,19-pentazatricyclo[12.3.1.14,8]nonadeca-1(18),4(19),5,7,14,16-hexaen-13-one]: the “Ent. B Max Activity (%)” value at CFTR [2] is “+++ (+++ is >60%)”. Besides, on CFTR [2] (read-out: Ent. B EC50), the EC50 is below 1000 nM.

Regarding `Cc1cccc(C)c1-c1cc2nc(n1)NS(=O)(=O)c1cccc(c1)C(=O)N([C@H]1C[C@@H](NC(=O)OC(C)C)C1)[C@H](CC(C)C)CO2` (single isomer, unassigned) [Compound 64], at CFTR [2], the “Ent. B Max Activity (%)” value was “+++ (+++ is >60%)”. In addition, the half-maximal effective concentration (EC50) at CFTR [2] (read-out: Ent. B EC50) is below 1000 nM.

For the compound `Cc1cccc(C)c1-c1cc2nc(n1)NS(=O)(=O)c1cccc(c1)C(=O)N(C1CC3(CC(C(=O)N(C)C)C3)C1)[C@H](CC(C)(C)C)CO2` (single isomer, unassigned) [Compound 114], on CFTR [2] (Table 10), the “Ent. B Max Activity (%)” value was “+++ (+++ is >60%)”. At CFTR [2] (setting [3]), the EC50 was below 1000 nM.

`CC(C)(C)C[C@@H]1COc2cc([C@H]3CCCCC3(C)C)nc(n2)NS(=O)(=O)c2cccc(c2)C(=O)N1C1CC2(CC2)C1` [Compound 397]: at CFTR [2], the “Ent. B Max Activity (%)” value is recorded as “++ (++ is 30-60%)”. Moreover, on CFTR [2] (read-out: Ent. B EC50), the concentration giving a half-maximal response (EC50) is below 1000 nM.

Consider `COCCCN1CCC2(CC1)CC(N1C(=O)c3cccc(c3)S(=O)(=O)Nc3nc(cc(-c4c(C)cccc4C)n3)OC[C@H]1CC(C)(C)C(F)(F)F)C2` [Compound 188, (11R)-6-(2,6-dimethylphenyl)-12-[7-(3-methoxypropyl)-7-azaspiro[3.5]nonan-2-yl]-11-(3,3,3-trifluoro-2,2-dimethylpropyl)-9-oxa-2λ^6-thia-3,5,12,19-tetraazatricyclo[12.3.1.14,8]nonadeca-1(17),4(19),5,7,14(18),15-hexaene-2,2,13-trione], for which, at CFTR [2] (Table 9), the “Ent. B Max Activity (%)” value is “+++ (+++ is >60%)”. Also, the half-maximal effective concentration (EC50) on CFTR [2] (Table 9, read-out: Ent. B EC50) was below 1000 nM.

As to `Cc1cccc(C)c1-c1cc2nc(n1)NS(=O)(=O)c1cccc(c1)C(=O)N(c1cnn(C(C)C)c1)[C@H](CC(C)(C)C)CO2` [Compound 228], on CFTR [2] (Table 10), the “Ent. B Max Activity (%)” value is “+++ (+++ is >60%)”. Also, the concentration for a half-maximal effect (EC50) at CFTR [2] (setting [3]) is below 1000 nM.

For the compound `Cc1cccc(C)c1-c1cc2nc(n1)NS(=O)(=O)c1cccc(c1)C(=O)N(C1CC(OC(F)(F)F)C1)[C@H](CC(C)C)CO2` (stereo in doubt) [Compound 213], on CFTR [2] (Table 9), the “Ent. B Max Activity (%)” value is reported as “+++ (+++ is >60%)”. The EC50 on CFTR [2] (Table 9, read-out: Ent. B EC50) is below 1000 nM.

The record behind these values is patent US20230382925A1, “MODULATORS OF CYSTIC FIBROSIS TRANSMEMBRANE CONDUCTANCE REGULATOR” (VERTEX PHARMACEUTICALS INCORPORATED, priority 2020, published 2023).
